Source: ChEMBL document CHEMBL5154765, “Design, synthesis, and biological evaluation of novel spiro[pyrrolidine-2,3'-quinolin]-2'-one derivatives as potential chitin synthase inhibitors and antifungal agents” (Eur J Med Chem, 2022)
Converted amounts (≈) assume the structure as drawn. The source made the active and inactive calls. The calls are words filed in the database; no cut-off is given here.

What was measured:
Candida tropicalis [1] = assay: Inhibition of Candida tropicalis ATCC750 chitin synthase at 300 ug/ml using UDP-GlcNAc as substrate incubated for 1 hr by microplate reader analysis relative to control; settings: dose 300.0 µg/ml
[2] = Inhibition of Candida tropicalis ATCC750 chitin synthase using UDP-GlcNAc as substrate incubated for 1 hr by microplate reader analysis
[3] = Binding affinity to Candida tropicalis ATCC750 chitin synthase assessed as inhibition constant using UDP-GlcNAc as substrate incubated for 10 hrs by Lineweaver-burk plot analysis
Candida albicans [4] = assay: Antifungal activity against Candida albicans ATCC 76615 assessed as reduction in fungal growth incubated for 24 hrs by two fold broth dilution method; type: functional
Aspergillus flavus [5] = assay: Antifungal activity against Aspergillus flavus ATCC 16870 assessed as reduction in fungal growth incubated for 24 hrs by two fold broth dilution method; type: functional
Aspergillus fumigatus [6] = assay: Antifungal activity against Aspergillus fumigatus GIMCC 3.19 assessed as reduction in fungal growth incubated for 24 hrs by two fold broth dilution method; type: functional
Cryptococcus neoformans [7] = assay: Antifungal activity against Cryptococcus neoformans ATCC 32719 assessed as reduction in fungal growth incubated for 24 hrs by two fold broth dilution method; type: functional
Candida albicans [8] = assay: Antifungal activity against Candida albicans ATCC 76615 assessed as reduction in fungal growth in presence of sorbitol incubated for 24 hrs by two fold broth dilution method; type: functional
Aspergillus flavus [9] = assay: Antifungal activity against Aspergillus flavus ATCC 16870 assessed as reduction in fungal growth in presence of sorbitol incubated for 24 hrs by two fold broth dilution method; type: functional
Aspergillus fumigatus [10] = assay: Antifungal activity against Aspergillus fumigatus GIMCC 3.19 assessed as reduction in fungal growth in presence of sorbitol incubated for 24 hrs by two fold broth dilution method; type: functional
Cryptococcus neoformans [11] = assay: Antifungal activity against Cryptococcus neoformans ATCC 32719 assessed as reduction in fungal growth in presence of sorbitol incubated for 24 hrs by two fold broth dilution method; type: functional
Candida albicans [12] = assay: Antifungal activity against fluconazole resistant Candida albicans ATCC 76615 assessed as reduction in fungal growth incubated for 24 hrs by two fold broth dilution method; type: functional
Aspergillus flavus [13] = assay: Antifungal activity against fluconazole resistant Aspergillus flavus ATCC 16870 assessed as reduction in fungal growth incubated for 24 hrs by two fold broth dilution method; type: functional
Aspergillus fumigatus [14] = assay: Antifungal activity against fluconazole resistant Aspergillus fumigatus GIMCC 3.19 assessed as reduction in fungal growth incubated for 24 hrs by two fold broth dilution method; type: functional
Cryptococcus neoformans [15] = assay: Antifungal activity against fluconazole resistant Cryptococcus neoformans ATCC 32719 assessed as reduction in fungal growth incubated for 24 hrs by two fold broth dilution method; type: functional
Candida albicans [16] = assay: Antifungal activity against micafungin resistant Candida albicans ATCC 76615 assessed as reduction in fungal growth incubated for 24 hrs by two fold broth dilution method; type: functional
Candida albicans [17] = assay: Antifungal activity against Candida albicans ATCC 76615 incubated for 72 hrs in presence of fluconazole by checker board assay; type: functional
Aspergillus flavus [18] = assay: Antifungal activity against Aspergillus flavus ATCC 16870 incubated for 72 hrs in presence of fluconazole by checker board assay; type: functional
Aspergillus fumigatus [19] = assay: Antifungal activity against Aspergillus fumigatus GIMCC 3.19 incubated for 72 hrs in presence of fluconazole by checker board assay; type: functional
Cryptococcus neoformans [20] = assay: Antifungal activity against Cryptococcus neoformans ATCC 32719 incubated for 72 hrs in presence of fluconazole by checker board assay; type: functional
Candida albicans [21] = assay: Antifungal activity against Candida albicans ATCC 76615 assessed as fluconazole MIC incubated for 72 hrs by checker board assay; type: functional
Aspergillus flavus [22] = assay: Antifungal activity against Aspergillus flavus ATCC 16870 assessed as fluconazole MIC incubated for 72 hrs by checker board assay; type: functional
Aspergillus fumigatus [23] = assay: Antifungal activity against Aspergillus fumigatus GIMCC 3.19 assessed as fluconazole MIC incubated for 72 hrs by checker board assay; type: functional
Cryptococcus neoformans [24] = assay: Antifungal activity against Cryptococcus neoformans ATCC 32719 assessed as fluconazole MIC incubated for 72 hrs by checker board assay; type: functional
Cryptococcus neoformans [25] = assay: Synergistic antifungal activity against Cryptococcus neoformans ATCC 32719 assessed as fractional inhibitory concentration index incubated for 72 hrs in presence of fluconazole by checker board assay; type: functional
Candida albicans [26] = assay: Synergistic antifungal activity against Candida albicans ATCC 76615 assessed as fractional inhibitory concentration index incubated for 72 hrs in presence of fluconazole by checker board assay; type: functional
Aspergillus flavus [27] = assay: Synergistic antifungal activity against Aspergillus flavus ATCC 16870 assessed as fractional inhibitory concentration index incubated for 72 hrs in presence of fluconazole by checker board assay; type: functional
Aspergillus fumigatus [28] = assay: Synergistic antifungal activity against Aspergillus fumigatus GIMCC 3.19 assessed as fractional inhibitory concentration index incubated for 72 hrs in presence of fluconazole by checker board assay; type: functional
Candida albicans [29] = assay: Antifungal activity against Candida albicans ATCC 76615 incubated for 72 hrs in presence of polyoxin B by checker board assay; type: functional
Aspergillus flavus [30] = assay: Antifungal activity against Aspergillus flavus ATCC 16870 incubated for 72 hrs in presence of polyoxin B by checker board assay; type: functional
Aspergillus fumigatus [31] = assay: Antifungal activity against Aspergillus fumigatus GIMCC 3.19 incubated for 72 hrs in presence of polyoxin B by checker board assay; type: functional
Cryptococcus neoformans [32] = assay: Antifungal activity against Cryptococcus neoformans ATCC 32719 incubated for 72 hrs in presence of polyoxin B by checker board assay; type: functional
Candida albicans [33] = assay: Synergistic antifungal activity against Candida albicans ATCC 76615 assessed as fractional inhibitory concentration index incubated for 72 hrs in presence of polyoxin B by checker board assay; type: functional
Aspergillus flavus [34] = assay: Synergistic antifungal activity against Aspergillus flavus ATCC 16870 assessed as fractional inhibitory concentration index incubated for 72 hrs in presence of polyoxin B by checker board assay; type: functional
Aspergillus fumigatus [35] = assay: Synergistic antifungal activity against Aspergillus fumigatus GIMCC 3.19 assessed as fractional inhibitory concentration index incubated for 72 hrs in presence of polyoxin B by checker board assay; type: functional
Cryptococcus neoformans [36] = assay: Synergistic antifungal activity against Cryptococcus neoformans ATCC 32719 assessed as fractional inhibitory concentration index incubated for 72 hrs in presence of polyoxin B by checker board assay; type: functional
Candida tropicalis [37] = assay: Noncompetitive inhibition of Candida tropicalis ATCC750 assessed as decrease in Vmax with constant Km at 0.05 to 0.15 mM using UDP-GlcNAc as substrate incubated for 10 hrs by Lineweaver-burk plot analysis; settings: dose 0.05-0.15 mM
Candida albicans [38] = assay: Antifungal activity against Candida albicans ATCC 76615 assessed as polyoxin B MIC incubated for 72 hrs by checker board assay; type: functional
Aspergillus flavus [39] = assay: Antifungal activity against Aspergillus flavus ATCC 16870 assessed as polyoxin B MIC incubated for 72 hrs by checker board assay; type: functional
Aspergillus fumigatus [40] = assay: Antifungal activity against Aspergillus fumigatus GIMCC 3.19 assessed as polyoxin B MIC incubated for 72 hrs by checker board assay; type: functional
Cryptococcus neoformans [41] = assay: Antifungal activity against Cryptococcus neoformans ATCC 32719 assessed as polyoxin B MIC incubated for 72 hrs by checker board assay; type: functional

## O=C(/C=C/C(=O)N1CCCC12Cc1ccccc1NC2=O)Nc1cccc([N+](=O)[O-])c1 (stereo unspecified)
Candida tropicalis [1]
  inhibition: 83.4%
[2]
  IC50: 100 µM
[3]
  Ki: 110 µM
Candida albicans [4]
  MIC: 2 µg/mL (≈ 4.76 µM)
Aspergillus flavus [5]
  MIC: 4 µg/mL (≈ 9.51 µM)
Aspergillus fumigatus [6]
  MIC: 4 µg/mL (≈ 9.51 µM)
Cryptococcus neoformans [7]
  MIC: 8 µg/mL (≈ 19 µM)
Candida albicans [8]
  MIC: 16 µg/mL
Aspergillus flavus [9]
  MIC: 64 µg/mL
Aspergillus fumigatus [10]
  MIC: 128 µg/mL
Cryptococcus neoformans [11]
  MIC: 64 µg/mL
Candida albicans [12]
  MIC: 32 µg/mL (≈ 76.1 µM)
Aspergillus flavus [13]
  MIC: 32 µg/mL (≈ 76.1 µM)
Aspergillus fumigatus [14]
  MIC: 32 µg/mL (≈ 76.1 µM)
Cryptococcus neoformans [15]
  MIC: 64 µg/mL (≈ 152 µM)
Candida albicans [16]
  MIC: 32 µg/mL (≈ 76.1 µM)
Candida albicans [17]
  MIC: 1 µg/mL
Aspergillus flavus [18]
  MIC: 2 µg/mL
Aspergillus fumigatus [19]
  MIC: 0.5 µg/mL
Cryptococcus neoformans [20]
  MIC: 4 µg/mL
Candida albicans [21]
  MIC: 1 µg/mL
Aspergillus flavus [22]
  MIC: 1 µg/mL
Aspergillus fumigatus [23]
  MIC: 4 µg/mL
Cryptococcus neoformans [24]
  MIC: 1 µg/mL
Cryptococcus neoformans [25]
  fractional inhibitory concentration index (FICI): 0.63
Candida albicans [26]
  fractional inhibitory concentration index (FICI): 0.75
Aspergillus flavus [27]
  fractional inhibitory concentration index (FICI): 0.63
Aspergillus fumigatus [28]
  fractional inhibitory concentration index (FICI): 1.13
Candida albicans [29]
  MIC: 2 µg/mL
Aspergillus flavus [30]
  MIC: 4 µg/mL
Aspergillus fumigatus [31]
  MIC: 4 µg/mL
Cryptococcus neoformans [32]
  MIC: 4 µg/mL
Candida albicans [33]
  fractional inhibitory concentration index (FICI): 1.5
Aspergillus flavus [34]
  fractional inhibitory concentration index (FICI): 1.5
Aspergillus fumigatus [35]
  fractional inhibitory concentration index (FICI): 1.5
Cryptococcus neoformans [36]
  fractional inhibitory concentration index (FICI): 0.75
Candida tropicalis [37]
  inhibition: Active
Candida albicans [38]
  MIC: 4 µg/mL
Aspergillus flavus [39]
  MIC: 4 µg/mL
Aspergillus fumigatus [40]
  MIC: 4 µg/mL
Cryptococcus neoformans [41]
  MIC: 4 µg/mL
